“Also recorded” adds a separate entry of the source. Like-named read-outs stand apart in the source and are kept apart here. Positions of bridges follow the written chain, without caps; N, C: chain ends. No end group written: not given here.
Experiments:
[1] = test system: ERG potassium channels (hERG1); conditions: ref [22],[46]; cited from earlier work
Text: Scorpion venom is a mixture of proteins, peptides and enzymes, carbohydrates, free amines, nucleotides, lipids, and other low molecular weight components with unknown function. Peptides that act as ion channel modulators are the main agents responsible for the venom toxicity and they have been classified according to their targets into: sodium scorpion toxins (NaScTx), with molecular masses between 6–8 kDa, potassium scorpion toxins (KScTx), with molecular masses between 3–5 kDa, and calcium scorpion toxins (CaScTx) that comprise peptides acting on voltage gated calcium channel ... || The effect of the CmERG1 toxin was evaluated on the hERG1 channel by means of electrophysiology experiments. […] Dose response curves were calculated by application of toxin concentrations from 1 nM to 1 µM. […] This feature is different from the other γKTxs, like CnERG1, ... || Two models were proposed to explain the uncommon feature of the γKTxs that comprises a partial current block, despite the saturation concentration, and the acceleration of the closing process due to the toxin preference for the channel closed state. In one kinetic model proposed by Hill and collaborators, first the toxin binds to the channel in a toxin channel encounter complex permissive to ion flow (TC*) and then passes to the blocked toxin-channel complex (TC). […]

[2] = target: T1, hERG1 channel (Homo sapiens, UniProt Q12809); experiment: Patch-clamp, voltage dependence of activation of hERG1; assay type: cell-based; conditions: 4 nM
T1 construct: expressed in transfected cells
T1 sequence (Q12809 whole entry): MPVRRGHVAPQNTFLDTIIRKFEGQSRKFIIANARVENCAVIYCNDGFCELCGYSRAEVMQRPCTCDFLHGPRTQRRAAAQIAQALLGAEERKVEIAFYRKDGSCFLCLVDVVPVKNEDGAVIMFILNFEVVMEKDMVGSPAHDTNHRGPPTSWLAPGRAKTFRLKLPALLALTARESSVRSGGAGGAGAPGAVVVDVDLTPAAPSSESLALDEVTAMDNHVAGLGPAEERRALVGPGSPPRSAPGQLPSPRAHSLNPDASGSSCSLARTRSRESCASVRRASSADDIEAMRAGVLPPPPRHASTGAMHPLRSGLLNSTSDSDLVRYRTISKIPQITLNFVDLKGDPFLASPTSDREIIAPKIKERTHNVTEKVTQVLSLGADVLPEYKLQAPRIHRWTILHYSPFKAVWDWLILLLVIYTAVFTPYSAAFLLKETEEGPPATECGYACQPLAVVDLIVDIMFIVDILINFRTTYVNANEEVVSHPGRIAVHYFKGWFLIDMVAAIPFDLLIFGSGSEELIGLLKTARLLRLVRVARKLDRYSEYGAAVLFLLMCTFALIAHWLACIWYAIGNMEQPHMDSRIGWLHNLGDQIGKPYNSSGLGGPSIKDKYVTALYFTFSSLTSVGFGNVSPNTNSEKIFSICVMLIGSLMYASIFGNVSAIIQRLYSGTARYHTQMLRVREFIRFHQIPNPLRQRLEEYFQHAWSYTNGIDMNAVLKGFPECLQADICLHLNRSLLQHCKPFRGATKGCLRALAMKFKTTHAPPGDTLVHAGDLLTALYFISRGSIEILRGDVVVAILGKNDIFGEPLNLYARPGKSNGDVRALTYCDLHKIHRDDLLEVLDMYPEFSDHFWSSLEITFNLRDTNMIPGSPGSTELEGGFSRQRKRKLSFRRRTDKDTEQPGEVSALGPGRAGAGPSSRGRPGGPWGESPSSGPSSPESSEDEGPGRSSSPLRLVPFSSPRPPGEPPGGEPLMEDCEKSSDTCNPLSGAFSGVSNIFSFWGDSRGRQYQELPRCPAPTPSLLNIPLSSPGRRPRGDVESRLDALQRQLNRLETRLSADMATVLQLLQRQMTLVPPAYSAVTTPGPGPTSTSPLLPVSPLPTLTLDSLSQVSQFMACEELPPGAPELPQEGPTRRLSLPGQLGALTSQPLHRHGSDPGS
Experimental: To understand better the activity of CmERG1 on hERG1, we analyzed the voltage dependence of the activation and inactivation processes in presence or absence of CmERG1 at 4 nM, a concentration close to the IC50. For the activation, tail currents were elicited at −120 mV after 5 s preconditioning pulses from 30 to −80 mV (Figure 4A). Figure 4B,C illustrates typical currents recorded in the absence and in the presence of CmERG1. Tail currents were normalized, plotted versus preconditioning potentials, and fitted to a Boltzmann equation (Figure 4D). […]
Figure 4 Effect of CmERG1 at 4 nM on the voltage dependence of activation and inactivation. […] (B,C) typical example of tail currents recorded in control conditions and during application of CmERG1, respectively. […] Black lines are the best fit obtained to a Boltzmann equation giving V1/2 for activation of −37.5 ± 1.4 mV and −34.8 ± 0.8 mV and slope of 6.0 ± 0.3 and 8 ± 0.7 for the control and in the presence of 4 nM CmERG1, respectively (mean ± SE and n = 5, analyzed by paired sample t-test at 0.05 level). […] Currents recorded at potentials lower than −90 mV were corrected for deactivation as shown in the inset of panel (F). […] (F,G) typical example of currents recorded in control conditions and in presence of 4 nM CmERG1 respectively. […]

[3] = target: T1, hERG1 channel; experiment: Patch-clamp, voltage dependence of (steady state) inactivation of hERG1; assay type: cell-based; conditions: 4 nM, n = 5
Experimental: Figure 4 Effect of CmERG1 at 4 nM on the voltage dependence of activation and inactivation. (A) Stimulation protocol used to study the voltage dependence of activation. Tail currents were elicited by 5 s preconditioning steps ranging from +30 to −80 mV, followed by a 500 ms pulse at −120 mV. (B,C) typical example of tail currents recorded in control conditions and during application of CmERG1, respectively. (D) Voltage dependence of activation. Normalized peak currents are plotted against the voltage of the preconditioning pulses in control conditions (black squares) and in the presence of 4 nM CmERG1 (grey squares). Black lines are the best fit obtained to a Boltzmann equation giving V1/2 for activation of −37.5 ± 1.4 mV and −34.8 ± 0.8 mV and slope of 6.0 ± 0.3 and 8 ± 0.7 for the control and in the presence of 4 nM CmERG1, respectively (mean ± SE and n = 5, analyzed by paired sample t-test at 0.05 level). (E) Stimulation used to study the voltage dependence of inactivation. Currents were elicited by a 1 s preconditioning pulse at 40 mV followed by depolarization steps ranging from −170 mV to 40 mV. Currents recorded at potentials lower than −90 mV were corrected for deactivation as shown in the inset of panel (F). The deactivation process was fitted by a single exponential (grey dash line) extrapolated to the zero point of the depolarization step, indicated by the arrow. (F,G) typical example of currents recorded in control conditions and in presence of 4 nM CmERG1 respectively. (H) Voltage dependence of inactivation. […] Black lines are the best fit obtained by a Boltzmann equation giving V1/2 for inactivation of −77.6 ± 3.6 mV and −79 ± 1.3 mV and slope of 28.2 ± 2.2 and 29 ± 1.5 for control conditions and in presence of 4 nM CmERG1, respectively (mean ± SE and n = 5, analyzed by paired sample t-test at 0.05 level).
For steady state inactivation, tail currents were recorded during 500 ms depolarization steps from −170 to 40 mV, after a depolarization at 40 mV for 1 s (Figure 4E). Figure 4F,G show an example of currents recorded in the absence and in the presence of toxin. […]

[4] = target: T1, hERG1 channel; experiment: Patch-clamp electrophysiology, block of hERG1 tail currents (dose-response) in CHO cells stably expressing hERG1; assay type: cell-based; conditions: for activity on hERG1 channels, in words (venom fraction screening / purified peptide): electrophysiology screening
Experimental: CHO cells stably expressing hERG1 potassium channels were used for the electrophysiological experiments (hERG1 accession number: NP_000229). We previously prepared this cell line stably transfecting CHO cells with plasmid pcDNA3.1-hERG1 (a kind gift from Enzo Wanke from University of Milano-Bicocca, Italy). Briefly: CHO cells at 80% confluence in a 35 mm culture plate were transfected with 2 µg of pcDNA3.1-hERG1 mixed with 7 uL of Lipofectamine (Invitrogen), accordingly to the manufacturer instructions. After 3 days, cells were selected by adding to the culture medium 2 mg/mL of G418 (SIGMA). After 10 days of selection, cells were cloned by limiting dilution and the resulting clones were probed for their current expression by electrophysiological recordings. High glucose DMEM (Dulbecco’s Modified Eagle Medium, SIGMA, Naucalpan de Juarez, Edo de Mexico, Mexico), supplemented with 10% Fetal Bovine Serum (Biotecfron, Emiliano Zapata, Morelos, Mexico) and with 500 µg/mL of antibiotic G418 (SIGMA) was used as growth medium. Cells were routinely maintained at 37 °C with 5% of CO2 in humidified atmosphere.
Intracellular solution contained in mM: 130 K-Aspartate, 10 NaCl, 2 MgCl2, 10 HEPES, 10 EGTA, pH 7.3 adjusted with NaOH. Extracellular solution contained in mM: 95 NaCl, 40 KCl, 2 CaCl2, 2 MgCl2, 10 HEPES, 5 glucose, pH 7.3 adjusted with NaOH. A concentrated 100–1000× stock was prepared dissolving lyophilized toxin in distilled water and stored at −20 °C until the used (no more than 3 weeks). Solutions were delivered to the cell under patch by means of an active perfusion system connected to a variable speed syringe pump (model A-99 from Razel Scientific Instruments (Saint Albans VT, USA)). The perfusion rate was approximately 1µL/s.
Patch pipettes were manufactured from capillary borosilicate glass tubing (Warner Instruments, Hamden, CT, USA) by means of a vertical puller model P-30 (Sutter Instrument, Novato, CA, USA). When pipettes were filled with internal solution, pipette resistance was between 1.5–3 MOhm.
During the depolarizing steps, hERG1 currents are usually small (Figure S1). This is a consequence of the slow activation kinetics (in seconds) and the very fast inactivation kinetics (in milliseconds) of this channel that can be considered an inward rectifier. Therefore, it is a common practice to record the tail currents during the hyperpolarization, where the inactivation is quickly removed and the deactivation occurs slowly. For the dose response curve (Figure 3), tail currents of hERG1 were recorded at −120 mV for 500 ms, after a preconditioning pulse at 60 mV for 500 ms every 5 s. Peak currents recorded in absence and in presence of the toxin were normalized to the maximal peak current in control condition and plotted versus the logarithm of toxin concentration. Data were fitted by a logistic equation. For the voltage dependence of activation study, hERG1 tail currents were recorded during a step at −120 mV for 500 ms, preceded by a 5 s depolarization steps in the range between 30 to −80 mV. To determine the voltage dependence of inactivation, currents were recorded after a depolarization at 40 mV for 1 s, during depolarization steps in the range between 40 to −170 mV. Currents recorded at potentials lower than −90 mV were corrected for deactivation: the deactivation process was fitted by a single exponential extrapolated to the zero point of each step. Data from both activation and inactivation protocols, in absence and in presence of the toxin, were normalized, plotted versus membrane potential, and fitted by a Boltzmann function.
Currents were acquired by using MultiClamp 700A amplifier and DigiData 1440a (Molecular Devices, San Jose, CA, USA). Off-line analysis and graphs were performed by using Clampfit 10 (Molecular Devices) and Origin 8 (OriginLab, Northampton MA, USA).
Where it is not otherwise indicated, electrophysiological data represent the mean of 3–6 cells ± standard error (S.E.). […]

[5] = test system: Kv1.2 channel; conditions: affinity compared with Kv1.3; ref [31] (ref [30],[31]); cited from earlier work
Text: (§1) Until now, little is known about the C. margaritatus venom composition. […] Thereafter, in a proteomics study of C. margaritatus venom, two other peptides were isolated and characterized: a peptide with 24 amino acids and 3 disulfide bridges (MW = 2609.15 Da) and a peptide with 30 amino acids and 3 disulfide bridges (MW = 3376 Da), both cla ... || Despite the fact that the C. margaritatus scorpion belongs to the Buthidae […], its venom has been considered of low toxicity, but as mentioned above, in Colombia this species has caused a few cases of moderate and severe scorpionism.

[6] = test system: Kv1.3 channel; conditions: human peripheral T lymphocytes, ref [30] (ref [30],[31]), cited from earlier work
Text: as §1

[7] = test system: Kv1.1 channel; conditions: affinity compared with Kv1.3; ref [31] (ref [30],[31]); cited from earlier work
Text: as §1

For BeKm-1, the “state dependence of channel-toxin interaction” value [1] is listed as “toxin binds preferentially to the closed channels while inactivation promotes toxin unbinding”.
With “DRDSCVDKSRCAKYGYFQECTDCCKKYGHNGGTCMFFKCKCA (disulfide 5-23, 11-34, 20-39, 24-41) [CmERG1]” the “V1/2 for activation (potential of half activation) in presence of toxin” value ([2]; Boltzmann fit, control −37.5 ± 1.4 mV, mean ± SE, n = 4 or n = 5, paired t-test) was -34.8 ± 0.8 mV, the “effect on total current / voltage dependence of activation, in words” value ([2]; n = 4, paired sample t-test at 0.05 level) was “reduces the total current with a tendency to modify the potential of half activation” and the “slope of voltage dependence of inactivation in presence of toxin” value ([3]; Boltzmann fit, control 28.2 ± 2.2, mean ± SE) was 29 ± 1.5. The “V1/2 for inactivation in presence of toxin” value ([3]; Boltzmann fit, control −77.6 ± 3.6 mV, mean ± SE) was −79 ± 1.3 mV, the “effect on voltage dependence of steady state inactivation, in words” value ([3]; paired sample t-test at 0.05 level) was “does not induce significant changes on the voltage dependence of inactivation; also recorded: no modification of the steady state inactivation” and the “slope of dose-response curve (logistic equation)” value ([4]; CHO cells stably expressing hERG1, 1 nM to 1 µM, tail currents at −120 mV) was 1.1 ± 0.05. For the same substance, the IC50 ([4]; CHO cells stably expressing hERG1, tail currents at −120 mV after preconditioning at 60 mV for 500 ms every 5 s, 1 nM to 1 µM, logistic fit, mean ± S.E., n = 3-6 cells per concentration, read-out: IC50, inhibition of hERG1 currents) was 3.4 ± 0.2 nM, the “onset and reversibility of block” value ([4]; CHO-hERG1 patch clamp, application at 1 µM and washout, pulses every 5 s) was “blocks channels in a fast and reversible manner” and the “block of hERG1 current, in words” value ([4]; CHO-hERG1 patch clamp, highest concentration 1 µM (n = 3)) was “completely blocks hERG1 current; also recorded: able to almost completely block the channels; also recorded: full blocking”. For the same substance, the “block of hERG1 current” value ([4]; CHO-hERG1 patch clamp, maximal block) was 100%, the “effect on kinetics of the closing (deactivation) process” value ([4]; CHO-hERG1 patch clamp, representative currents at 300 nM and 3 nM) was “does not accelerate the kinetics of the closing process; also recorded: absence of deactivation process acceleration” and the “difference in efficiency at a total block of current between CmERG1 and CnERG1” value ([4]; CmERG1 versus CnERG1) was 10%. The “activity on hERG1 channels, in words (venom fraction screening / purified peptide)” value [4] was “active on hERG1” and the “activity on hERG1 channels, in words (venom fraction screening / purified peptide)” value ([4]; listed as peptide corresponding to 4792.88 Da) was “confirmed the activity of this peptide against hERG1”.
In the case of Margatoxin, the “inhibition of Kv1.2, in words” value [5] is given as “block also Kv1.1 and Kv 1.2”, the “inhibition of Kv1.3, in words” value [6] is given as “potent and specific blocker” and the “inhibition of Kv1.3, in words” value ([6]; listed as Margatoxin 1) is given as “potent inhibitor”. For the same substance, the “inhibition of Kv1.1, in words” value [7] was “block also Kv1.1”.
